Measured values from patent publication US8617516B2, “Universal anchor peptide for nanoparticles” (Washington University, priority 2008, dated 2013).
Several values for one entry are separate records, joined by “and”; a condition that tells them apart may be missing. Identical values can stand only once.

Legend:
[1] = tested on: 2F2B mouse endothelial cells; test: XTT cell viability assay (cytotoxicity of peptides); format: cell-based; conditions: 2F2B cells; for IC50: 3 hours of treatment at 37° C., XTT
Procedure: For each peptide, cytotoxicity was assessed in 2F2B mouse endothelial cells by the XTT cell viability assay (Biotium, Hayward, Calif.). Cells were seeded in 96-well plates at 10,000 cells/well 24 hours before treatment with melittin and mutated melittins at selected concentrations. After 3 hours of treatment at 37° C., 25 μl of activated XTT solution was added to each well and incubated at 37° C. for 5 hours. After 5 hours of incubation, plates were gently shaken to achieve even dye distribution. The absorbances of the samples were measured by a microplate reader (Biorad, Model 550, Hercules, Calif.) at a wavelength of 450 nm. Background was subtracted and the results were normalized to untreated control cells.

[2] = Surface plasmon resonance (Biacore X 100) binding of peptides on immobilized perfluorocarbon nanoparticles; conditions: read-out: dissociation constant
Procedure: (§1) In order to evaluate whether linker peptide 1 (LP1) and linker peptide 2 (LP2) still retained high affinity on a lipid monolayer of the nanoparticles, surface plasmon resonance (SPR) studies were performed by using Biacore X 100 (Biacore Inc, Piscataway, N.J.). The binding kinetics and affinity of LP1 and LP2 on two type of nanoparticles were studied. One type was perfluorocarbon nanoparticles (e.g., perfluorooctylbromide, PFOB), the other type was oil-based (safflower core) nanoparticles. PBS (Ca^2+ and Mg^2+ free) was used as the running buffer. Nanoparticles were immobilized on Biacore sensor chip L1 by injecting nanoparticles at a flow rate of 1 μl/min for 30 minutes, followed by a running buffer wash at a flow rate of 100 μl/min for 50 seconds. Peptides in selected concentrations, prepared in running buffer, were then injected at a flow rate of 30 μl/min for 1 minute. At the end of each experiment, the sensor chip surface was regenerated by injection of 3-[(3-cholamidopropyl)dimethylammonio]-1-propanesulfonate (CHAPS) at a flow rate of 100 μl/min for 24 seconds.
The binding kinetics of the resulting VCAM-targeting peptides (i.e., TCP1 and TCP2) on perfluorocarbon nanoparticles were examined using Biacore X 100. PBS (Ca^2+ and Mg^2+ free) was used as the running buffer. Nanoparticles were immobilized on Biacore sensor chip L1 by injecting nanoparticles at a flow rate of 1 μl/min for 30 minutes, followed by a running buffer wash at a flow rate of 100 μl/min for 50 seconds. Targeting peptide prepared at selected concentrations in running buffer was sequentially injected at a flow rate of 30 μl/min for 1 minute. At the end of each experiment, the sensor chip surface was regenerated by injection of 3-[(3-cholamidopropyl)dimethylammonio]-1-propanesulfonate (CHAPS) at a flow rate of 100 μl/min for 24 seconds. FIG. 8 presents selected sensorgrams at several different concentrations of the two VCAM-targeting peptides. The dissociation constant of TCP1 and TCP2 were 0.13 μM and 0.04 μM, respectively.

[3] = Surface plasmon resonance (Biacore X 100) binding of peptides on immobilized oil-based nanoparticles; conditions: sensor chip L1, read-out: dissociation constant
Procedure: as §1

[4] = Dissociation of loaded peptide from PFOB nanoparticles (tryptophan fluorescence of supernatant); format: physicochemical; conditions: stored at 4° C., up to 70 hours after loading
Procedure: The dissociation of the peptide from linker peptide 1-loaded PFOB nanoparticles is depicted in FIG. 4. After being loaded with the linker peptide 1, the loaded PFOB nanoparticles were stored at 4° C. for 30 minutes, 1 hour, 2 hours, 4 hours, 22 hours, 46 hours, and 70 hours. The loaded nanoparticles were centrifuged at 100 g for 10 minutes, and the dissociated linker peptide 1 was measured by using tryptophan fluorescence after excitation at 280 nm in a fluorescent spectrofluorometer (Varian Inc, Palo Alto, Calif.).
FIG. 9 presents the dissociation of TCP1 or TCP2 from loaded PFOB nanoparticles as a function of time after loading. After loaded with TCP1 or TCP2, the PFOB nanoparticles were stored at 4° C. for 30 minutes, 1 hour, 2 hours, 4 hours, 22 hours, 46 hours, and 70 hours. The stored nanoparticles were then centrifuged at 100 g for 10 minutes and dissociated TCP1 or TCP2 was measured using tryptophan fluorescence after excitation at 280 nm in a fluorescent spectrofluorometer (Varian Inc, Palo Alto, Calif.).

[5] = Dynamic light scattering size and zeta potential of peptide-loaded PFOB/PFC nanoparticles; format: physicochemical; conditions: for zeta potential: PFOB nanoparticles after incorporating the peptide (plain nanoparticles −17.62 mV); for average hydrodynamic diameter: PFOB nanoparticles with versus without inserted peptide
Procedure: (§2) The size distributions of the nanoparticles with or without the linker peptide were analyzed by dynamic light scattering (Brookhaven Instruments Corp., Holtsville, N.Y.). Zeta potential (ζ) values were determined with a Brookhaven Instruments PALS Zeta Potential Analyzer (Brookhaven Instruments Corp., Holtsville, N.Y.). Data were acquired in the phase-analysis light scattering (PALS) mode following solution equilibration at 25° C. […] This change further confirms the insertion of the linker peptide 1 into the PFOB nanoparticles. Furthermore, the structural integrity of linker peptide 1 inserted PFOB nanoparticles was confirmed by transmission electron microscopy.
The size distributions of the nanoparticles with or without cargo incorporated were analyzed by dynamic light scattering (Brookhaven Instruments Corp., Holtsville, N.Y.). The size distribution was plotted by particle number. Zeta potential (ζ) values were determined with a Brookhaven Instruments PALS Zeta Potential Analyzer (Brookhaven Instruments Corp., Holtsville, N.Y.). Data were acquired in the phase-analysis light scattering (PALS) mode following solution equilibration at 25° C.

[6] = Dynamic light scattering size and zeta potential of peptide-loaded liposomes; format: physicochemical
Procedure: as §2
The interactions between linker peptide 1 and liposomes are depicted in FIG. 6. […] This change further confirms that the linker peptide 1 inserted into the liposomes.

VCAM-1 = target: T1, VCAM-1 (Mus musculus, UniProt P29533); test: Specific binding of VCAM targeted nanoparticles by confocal microscopy; format: cell-based; conditions: Alexa Fluor 488 labeled PFOB nanoparticles, TNF-α stimulated 2F2B cells, 1 hour
T1 construct: endogenous in cells; host or cells: 2F2B endothelial cells, TNF-α stimulated
T1 sequence (P29533 25-739): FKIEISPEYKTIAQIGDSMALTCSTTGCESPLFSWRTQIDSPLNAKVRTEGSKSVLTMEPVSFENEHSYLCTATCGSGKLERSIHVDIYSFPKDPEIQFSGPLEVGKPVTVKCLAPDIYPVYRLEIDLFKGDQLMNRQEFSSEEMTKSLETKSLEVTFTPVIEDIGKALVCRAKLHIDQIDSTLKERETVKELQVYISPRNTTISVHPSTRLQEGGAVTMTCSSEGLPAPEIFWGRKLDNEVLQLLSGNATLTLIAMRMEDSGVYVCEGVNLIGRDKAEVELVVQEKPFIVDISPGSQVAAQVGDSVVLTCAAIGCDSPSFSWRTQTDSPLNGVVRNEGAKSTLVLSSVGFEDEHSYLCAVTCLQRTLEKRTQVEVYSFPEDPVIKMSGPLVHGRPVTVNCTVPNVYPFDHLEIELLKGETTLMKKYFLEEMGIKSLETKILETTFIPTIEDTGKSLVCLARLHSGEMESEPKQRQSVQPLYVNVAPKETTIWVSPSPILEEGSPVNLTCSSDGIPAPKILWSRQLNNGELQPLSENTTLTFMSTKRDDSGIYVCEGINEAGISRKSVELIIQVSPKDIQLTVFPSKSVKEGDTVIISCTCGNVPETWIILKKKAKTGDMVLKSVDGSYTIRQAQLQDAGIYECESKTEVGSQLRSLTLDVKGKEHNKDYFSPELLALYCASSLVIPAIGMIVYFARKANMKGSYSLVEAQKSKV
Procedure: The specific binding of VCAM targeted nanoparticles was evaluated by confocal microscopy in 2F2B cells, which express VCAM-1 on the cell surface after TNF-α stimulation. Alexa Fluor 488 labeled PFOB nanoparticles comprising the VCAM-targeting peptide (TCP1 or TCP2) or nanoparticles themselves were incubated with TNF-α stimulated 2F2B cells in Delta T Culture dish at 37° C. for 1 hour, followed by five PBS washes. Cells were then fixed by incubation in 1 ml of 4% paraformaldehyde at 37° C. for 5 minutes. After fixation, the cells were washed with PBS for 5 times and the cells were visualized using a confocal microscope (Zeiss Meta 510, Thornwood, N.Y.) with standard filter sets. Concomitant differential interference contrast (DIC) imaging was used to determine the location of nanoparticles in the cells.

[7] = on perfluorocarbon nanoparticles, sensor chip L1
[8] = VCAM-targeting peptides on perfluorocarbon nanoparticles

CC[C@H](C)[C@H](NC(=O)CNC(C)=O)C(=O)NCC(=O)N[C@@H](C)C(=O)N[C@@H](Cc1c[nH]c2ccccc12)C(=O)N[C@@H](CC(C)C)C(=O)N[C@@H](CCCCN)C(=O)N[C@H](C(=O)N[C@@H](CC(C)C)C(=O)N[C@H](C(=O)N[C@H](C(=O)NCC(=O)N[C@@H](CC(C)C)C(=O)N1CCC[C@H]1C(=O)N[C@@H](C)C(=O)N[C@@H](CC(C)C)C(=O)N[C@H](C(=O)N[C@@H](CO)C(=O)N[C@@H](Cc1c[nH]c2ccccc12)C(=O)N[C@H](C(=O)N[C@@H](CCCCN)C(=O)N[C@@H](CCCNC(=N)N)C(=O)N[C@@H](CCCCN)C(=O)N[C@@H](CCCNC(=N)N)C(=O)N[C@@H](CCC(N)=O)C(=O)N[C@@H](CCC(N)=O)C(N)=O)[C@@H](C)CC)[C@@H](C)CC)[C@@H](C)O)[C@@H](C)O)C(C)C [Peptide P1]
IC50 [1]: 750 ± 40 nM

CC[C@H](C)[C@H](NC(=O)CNC(C)=O)C(=O)NCC(=O)N[C@@H](C)C(=O)N[C@H](C(=O)N[C@@H](CC(C)C)C(=O)N[C@@H](CCCCN)C(=O)N[C@H](C(=O)N[C@@H](CC(C)C)C(=O)N[C@H](C(=O)N[C@H](C(=O)NCC(=O)N[C@@H](CC(C)C)C(=O)N[C@@H](C)C(=O)N[C@@H](C)C(=O)N[C@@H](CC(C)C)C(=O)N[C@H](C(=O)N[C@@H](CO)C(=O)N[C@@H](Cc1c[nH]c2ccccc12)C(=O)N[C@H](C(=O)N[C@@H](CCCCN)C(=O)N[C@@H](CCCNC(=N)N)C(=O)N[C@@H](CCCCN)C(=O)N[C@@H](CCCNC(=N)N)C(=O)N[C@@H](CCC(N)=O)C(=O)N[C@@H](CCC(N)=O)C(N)=O)[C@@H](C)CC)[C@@H](C)CC)[C@@H](C)O)[C@@H](C)O)C(C)C)C(C)C [Peptide P2]
cytotoxicity among the modified peptides (FIG. 2) [1]: least cytotoxicity
IC50 [1]: 26600 ± 560 nM
Kd [2, 7]: 5.48 nM
Kd [3]: 0.64 nM

CC[C@H](C)[C@H](NC(=O)[C@H](CC(C)C)NC(=O)[C@H](C)NC(=O)[C@@H]1CCCN1C(=O)[C@H](CC(C)C)NC(=O)CNC(=O)[C@@H](NC(=O)[C@@H](NC(=O)[C@H](CC(C)C)NC(=O)[C@@H](NC(=O)[C@H](CCCCN)NC(=O)[C@H](CC(C)C)NC(=O)[C@@H](NC(C)=O)C(C)C)C(C)C)[C@@H](C)O)[C@@H](C)O)C(=O)N[C@@H](CO)C(=O)N[C@@H](Cc1c[nH]c2ccccc12)C(=O)N[C@H](C(=O)N[C@@H](CCCCN)C(=O)N[C@@H](CCCNC(=N)N)C(=O)N[C@@H](CCCCN)C(=O)N[C@@H](CCCNC(=N)N)C(=O)N[C@@H](CCC(N)=O)C(=O)N[C@@H](CCC(N)=O)C(N)=O)[C@@H](C)CC [Peptide P3]
IC50 [1]: 14400 ± 920 nM

CC[C@H](C)[C@H](NC(=O)[C@H](CC(C)C)NC(=O)[C@H](C)NC(=O)[C@@H]1CCCN1C(=O)[C@H](CC(C)C)NC(=O)CNC(=O)[C@@H](NC(=O)[C@@H](NC(=O)[C@H](CC(C)C)NC(=O)[C@@H](NC(C)=O)C(C)C)[C@@H](C)O)[C@@H](C)O)C(=O)N[C@@H](CO)C(=O)N[C@@H](Cc1c[nH]c2ccccc12)C(=O)N[C@H](C(=O)N[C@@H](CCCCN)C(=O)N[C@@H](CCCNC(=N)N)C(=O)N[C@@H](CCCCN)C(=O)N[C@@H](CCCNC(=N)N)C(=O)N[C@@H](CCC(N)=O)C(=O)N[C@@H](CCC(N)=O)C(N)=O)[C@@H](C)CC [Peptide P4, VLTTGLPALISWIKRKRQQ]
cytotoxicity among the modified peptides (FIG. 2) [1]: least cytotoxicity
IC50 [1]: 114000 nM and 115000 nM
decrease in cytotoxicity compared to MMLT ([1]; ratio of cytotoxicity index (IC50)): ~50 fold
cell toxicity ([1]; up to a concentration of 90 μM): essentially no cell toxicity
Kd [2, 7]: 225 nM
Kd [3]: 22.9 nM
loaded peptide dissociated from the PFOB nanoparticles [4]: < 10%
zeta potential [5]: +23.33 mV
average hydrodynamic diameter [5]: not affected
zeta potential ([6]; liposomes after incorporating the peptide (plain liposomes −36.73 mV)): −29.843 mV
average hydrodynamic diameter ([6]; liposomes with versus without inserted peptide): not affected

CC[C@H](C)[C@H](NC(=O)CNC(C)=O)C(=O)NCC(=O)N[C@@H](C)C(=O)N[C@H](C(=O)N[C@@H](CC(C)C)C(=O)N[C@@H](CCCCN)C(=O)N[C@H](C(=O)N[C@@H](CC(C)C)C(=O)N[C@H](C(=O)N[C@H](C(=O)NCC(=O)N[C@@H](CC(C)C)C(=O)N1CCC[C@H]1C(=O)N[C@@H](C)C(=O)N[C@@H](CC(C)C)C(=O)N[C@H](C(=O)N[C@@H](CO)C(=O)N[C@@H](Cc1c[nH]c2ccccc12)C(=O)N[C@H](C(=O)N[C@@H](CCCCN)C(=O)N[C@@H](CCCNC(=N)N)C(N)=O)[C@@H](C)CC)[C@@H](C)CC)[C@@H](C)O)[C@@H](C)O)C(C)C)C(C)C [Peptide P5]
IC50 [1]: 6410 ± 640 nM

VHPKQHRggVLTTGLPALISWIKR [TCP2]
Kd [2, 8]: 40 nM
zeta potential [5]: 12.43 mV
average hydrodynamic diameter [5]: not affected

VLTTGLPALISWIKRggVHPKQHR [TCP1]
Kd [2, 8]: 130 nM
zeta potential [5]: 13.47 mV
average hydrodynamic diameter [5]: not affected
binding to cellular VCAM-1 (fluorescent signal) (VCAM-1): better binding
